# Calls of active or inactive are those of the source.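 Rule for the calls: active = inhibition above 60%; inactive = inhibition at or below 60%.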
# System: Fam108b (Abhd17b) [Mus musculus]
# Test: inhibition of membrane-bound mouse Fam108b, SAR follow-up, cell lysate, gel-based competitive ABPP, membrane form, set 2 (AID 588587)
# Conditions: Fam108b-overexpressing membrane proteome, FP-Rh, at 20 µM, hits give high values
row,SMILES,inhibition
1,CC(C)(C)c1nc2scc(-c3ccccc3)c2c(=O)o1,0% (inactive)
2,O=c1oc(-c2ccccc2F)nc2scc(-c3cccs3)c12,0% (inactive)

# Reference: PubChem BioAssay AID588587 (The Scripps Research Institute Molecular Screening Center, 2011)
